This is an account of results in patent US4309343A, “Pharmacologically active peptides” (Eli Lilly and Company, priority 1980, dated 1982).

One assay deals with mouse (Cox Standard). The experiment in a line: mouse hot plate test (mouse jump). The format is in vivo. As to conditions: subcutaneous injection, 15 minutes after administration, hot plate 52° C., dose producing analgesia in 50% of mice. As for the experimental part:
In the mouse hot plate test, an upright acrylic cylinder comprising, as its base, a hot plate surface which is maintained at 52° C. is used. A mouse (Cox Standard) is given, by subcutaneous injection, a predetermined amount of test compound dissolved or suspended in a suitable carrier, and, 15 minutes after administration of the test compound, the mouse is placed on the hot plate surface. The latency in seconds until the mouse jumps from the hot plate surface is measured. […] This must occur in a dose range which produces no motor incoordination or incapacitation. The following Table records ED50 results obtained from this test. By the term "ED50 " is meant that dose which produces analgesia in 50% of the mice tested. Analgesia is defined as a response latency in the presence of test compound that is equal to or greater than the control response latency plus two standard deviations. The percent analgesia data are converted to probits, and the ED50 is calculated by regression analysis of the dose-response data. Each dose response curve must have at least four points, and each point is determined using data from a minimum of ten treated mice and ten control mice.

A further assay concerns mice. The following applies: cited from earlier work; for analgesic activity upon intracerebroventricular administration: mice, intracerebroventricularly, Buscher et al., Nature, 261, 423 (1976); for analgesic activity when administered parenterally: parenteral administration.
The next assay has as its system mouse vas deferens. The experiment in a line: mouse vas deferens test, electrically evoked twitch. The format is cell-based. As to conditions: concentration causing depression of 50% of the electrically evoked contraction; field stimulation 0.15 Hz, 1 msec., 40 V; 37° C. The protocol:
In the mouse vas deferens test, single mouse vas deferens from mature mice (Cox, 30-40 g.) are suspended in 3 ml. of modified Kreb's solution aerated with 95% O2 -5% CO2 and maintained at 37° C. The twitch induced by field stimulation (0.15 Hz, 1 msec., 40 V) is recorded on a polygraph via an isometric transducer. The test compound is added to the bath in 20 to 30 μl. aliquots. A dose-response curve is constructed by cumulative addition of appropriate amounts of the compound to the bath. Comparison of relative agonist potency is made on the basis of IC50 values (concentration causing depression of 50% of the electrically evoked contraction).

Where “and” joins values, the source holds several entries; their conditions need not be identical. Equal entries are not always repeated. Structures can show the parent of a compound that is named as a salt.

“N,N'-1,4-Butanediylbis-[L-tyrosyl-D-alanyl-glycyl-L-phenylalanyl-L-(N^α -methyl)methioninamide], Diformate Salt [Example 4]”: the “Mouse Jump ED50” value with mouse (Cox Standard) (Diformate Salt) is 5.5 mg/kg and 9.85 mg/kg.
Turning to “H-Tyr-Gly-Gly-Phe-Met-OH [methionine enkephalin]”, in the assay with mice, the “analgesic activity upon intracerebroventricular administration” value is on record as “exhibit analgesic activity” and the “analgesic activity when administered parenterally” value is “practically devoid of any useful analgesic activity”.
As to `CC(=O)O.CC(=O)O.C[C@@H](NC(=O)[C@@H](N)Cc1ccc(O)cc1)C(=O)NCC(=O)N[C@@H](Cc1ccccc1)C(=O)NCCCCNC(=O)[C@H](Cc1ccccc1)NC(=O)CNC(=O)[C@@H](C)NC(=O)[C@@H](N)Cc1ccc(O)cc1` [Example 1, N,N'-1,4-Butanediylbis-[L-tyrosyl-D-alanyl-glycyl-L-phenylalanylamide], Diacetate Salt], the “Mouse Jump ED50” value in the assay on mouse (Cox Standard) worked out at 0.370 mg/kg. For the same compound, the IC50 – broadly, the midpoint of a concentration-inhibition curve – in the assay with mouse vas deferens was 0.00283 µM.
On the same counts, the results for `CSCC[C@@H](C(N)=O)N(C)C(=O)[C@H](Cc1ccccc1)NC(=O)CNC(=O)[C@@H](C)NC(=O)[C@@H](N)Cc1ccc(O)cc1` [H--LTyr--DAla--Gly--LPhe--L(N--Me)Met--NH2] are 0.363 mg/kg and 0.0122 µM.
For the compound `C[C@@H](NC(=O)[C@@H](N)Cc1ccc(O)cc1)C(=O)NCC(=O)N[C@@H](Cc1ccccc1)C(=O)NCCCCCCCCNC(=O)[C@H](Cc1ccccc1)NC(=O)CNC(=O)[C@@H](C)NC(=O)[C@@H](N)Cc1ccc(O)cc1` [Example 2, N,N'-1,8-Octanediylbis-[L-tyrosyl-D-alanyl-glycyl-L-phenylalanylamide], Diacetate Salt], the “Mouse Jump ED50” value in the assay on mouse (Cox Standard) is > 30 mg/kg. The compound also showed an IC50 with mouse vas deferens of 0.067 µM.
In the case of `C[C@@H](NC(=O)[C@@H](N)Cc1ccc(O)cc1)C(=O)NCC(=O)N[C@@H](Cc1ccccc1)C(N)=O` [H--LTyr--DAla--Gly--LPhe--NH2], in the assay with mouse (Cox Standard), the “Mouse Jump ED50” value amounted to 0.85 mg/kg. The compound also displayed an IC50 in the assay on mouse vas deferens of 0.189 µM.
Take “H-Tyr-Gly-Gly-Phe-Leu-OH. [leucine enkephalin]”: in the assay on mice, the “analgesic activity upon intracerebroventricular administration” value is “exhibit analgesic activity” and the “analgesic activity when administered parenterally” value is “practically devoid of any useful analgesic activity”.
